target: 6×His-CRBN-DDB1 protein (Homo sapiens (Human), UniProt Q96SW2); assay: CRBN Fluorescence Polarization Assay; format: binding; details: competitive fluorescence polarization; Cy5-O-Len probe 30 nM, 6×His-CRBN-DDB1 200 nM; 1 hour at room temperature; mean of three independent determinations; read-out: CRBN FP (IC50)
Protocol: In this competitive fluorescent polarization assay Cy5 conjugated lenalidomide analog (Cy5-O-Len)^13 was used as a fluorescent probe. 6×His-CRBN-DDB1 protein (200 nM) and Cy5-O-Len probe (30 nM) were combined in 20 mM HEPES pH 7, 150 mM NaCl, 0.005% Tween-20 assay buffer. 20 μL of this assay cocktail was dispensed into wells of Corning 3821 black 384-well plates. Compounds were transferred to the assay plate from a dose-response plate using a Pintool on a Biomek FXP Laboratory Automation Workstation (Beckman Coulter). The plates were incubated in the dark for 1 hour at room temperature and then read on an Envision plate reader (PerkinElmer, Massachusetts, USA). IC50 values were determined using a proprietary software RISE (Robust Investigation of Screening Experiments), developed in house on the Pipeline Pilot platform (Biovia, v. 17.2.0). Data represent the mean of three independent determinations.
Cereblon binding activity was determined as described herein above, and the results are provided below in Table 2 for representative disclosed compounds. Compound number (“Cmpd No.”) refers to the compound number (and associated compound information such as structure, name, etc.) as provided in Table 1. In Table 2 below: cereblon binding IC50 values are categorized as follows: “A” represents IC50 value<1 μM, “B” represents IC50 value between 1 and 10 μM, and “C” represents IC50 value>10 μM.

6×His-CRBN-DDB1 protein, sequence (Q96SW2 whole entry): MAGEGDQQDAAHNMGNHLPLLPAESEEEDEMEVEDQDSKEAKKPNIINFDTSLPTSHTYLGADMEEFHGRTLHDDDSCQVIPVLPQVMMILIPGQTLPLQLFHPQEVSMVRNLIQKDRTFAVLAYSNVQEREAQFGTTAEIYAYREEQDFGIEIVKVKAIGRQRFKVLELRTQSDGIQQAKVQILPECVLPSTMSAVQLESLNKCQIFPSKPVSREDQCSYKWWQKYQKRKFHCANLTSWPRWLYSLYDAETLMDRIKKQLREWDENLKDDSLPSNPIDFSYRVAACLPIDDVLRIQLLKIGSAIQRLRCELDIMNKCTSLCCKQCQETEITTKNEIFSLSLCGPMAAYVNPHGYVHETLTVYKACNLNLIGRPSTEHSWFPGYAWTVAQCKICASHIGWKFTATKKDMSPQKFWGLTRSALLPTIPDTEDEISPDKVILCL
6×His-CRBN-DDB1 protein, sequence (Q16531 whole entry partner): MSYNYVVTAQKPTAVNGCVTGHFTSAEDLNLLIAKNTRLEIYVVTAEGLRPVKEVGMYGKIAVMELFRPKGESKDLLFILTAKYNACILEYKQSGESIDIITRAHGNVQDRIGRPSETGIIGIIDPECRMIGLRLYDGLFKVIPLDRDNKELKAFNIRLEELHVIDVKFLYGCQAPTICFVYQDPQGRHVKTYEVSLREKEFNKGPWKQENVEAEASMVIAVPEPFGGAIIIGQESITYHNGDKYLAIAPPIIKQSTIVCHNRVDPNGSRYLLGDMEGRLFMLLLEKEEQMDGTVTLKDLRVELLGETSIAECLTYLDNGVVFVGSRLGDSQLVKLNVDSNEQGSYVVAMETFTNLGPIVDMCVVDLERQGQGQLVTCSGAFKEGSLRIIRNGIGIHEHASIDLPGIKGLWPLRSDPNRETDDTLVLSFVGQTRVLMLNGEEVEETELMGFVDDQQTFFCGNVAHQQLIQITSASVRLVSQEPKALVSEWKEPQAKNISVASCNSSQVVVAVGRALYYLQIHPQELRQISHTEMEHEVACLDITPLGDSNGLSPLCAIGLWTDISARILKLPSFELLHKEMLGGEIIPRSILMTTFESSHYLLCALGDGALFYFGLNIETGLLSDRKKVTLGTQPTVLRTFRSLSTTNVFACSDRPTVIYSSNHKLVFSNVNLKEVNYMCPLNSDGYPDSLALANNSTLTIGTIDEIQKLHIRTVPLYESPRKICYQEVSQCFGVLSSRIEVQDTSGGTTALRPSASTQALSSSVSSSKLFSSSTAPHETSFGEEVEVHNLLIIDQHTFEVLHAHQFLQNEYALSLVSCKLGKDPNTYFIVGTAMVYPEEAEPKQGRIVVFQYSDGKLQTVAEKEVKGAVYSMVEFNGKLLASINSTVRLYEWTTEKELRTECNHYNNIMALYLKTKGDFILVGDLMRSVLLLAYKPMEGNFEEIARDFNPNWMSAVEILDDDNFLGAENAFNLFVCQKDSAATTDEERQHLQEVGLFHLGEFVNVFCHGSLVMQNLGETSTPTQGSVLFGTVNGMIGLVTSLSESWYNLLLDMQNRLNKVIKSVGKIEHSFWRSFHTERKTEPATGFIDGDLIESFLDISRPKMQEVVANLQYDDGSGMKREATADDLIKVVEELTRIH

Structure (SMILES)	IC50 [nM]
O=C1CCC(N2Cc3cc(NC(=O)c4ccccc4F)ccc3C2=O)C(=O)N1 (centres unmarked) [Compound 37, N-(2-(2,6-dioxopiperidin-3-yl)-1-oxoisoindolin-5-yl)-2-fluorobenzamide]	1000 to 10000
O=C1CCC(N2Cc3cc(NC(=O)c4ccc(Cl)cc4)ccc3C2=O)C(=O)N1 (centres unmarked) [Compound 14, 4-chloro-N-(2-(2,6-dioxopiperidin-3-yl)-1-oxoisoindolin-5-yl)benzamide]	1000 to 10000
CS(=O)(=O)Nc1cccc(C(=O)Nc2ccc3c(c2)CN(C2CCC(=O)NC2=O)C3=O)c1 (centres unmarked) [Compound 47, N-(2-(2,6-dioxopiperidin-3-yl)-1-oxoisoindolin-5-yl)-3-(methylsulfonamido)benzamide]	1000 to 10000
O=C1CCC(N2Cc3cc(NC(=O)c4ccc(-c5ccn[nH]5)cc4)ccc3C2=O)C(=O)N1 (centres unmarked) [Compound 21, N-(2-(2,6-dioxopiperidin-3-yl)-1-oxoisoindolin-5-yl)-4-(1H-pyrazol-5-yl)benzamide]	1000 to 10000
O=C1CCC(N2Cc3cc(NC(=O)c4cccc(OC(F)(F)F)c4)ccc3C2=O)C(=O)N1 (centres unmarked) [Compound 44, N-(2-(2,6-dioxopiperidin-3-yl)-1-oxoisoindolin-5-yl)-3-(trifluoromethoxy)benzamide]	1000 to 10000
CC(C)(O)c1ccc(C(=O)Nc2ccc3c(c2)CN(C2CCC(=O)NC2=O)C3=O)cc1 (centres unmarked) [Compound 22, N-(2-(2,6-dioxopiperidin-3-yl)-1-oxoisoindolin-5-yl)-4-(2-hydroxypropan-2-yl)benzamide]	1000 to 10000
O=C1CCC(N2Cc3cc(NC(=O)c4ccc(F)cc4)ccc3C2=O)C(=O)N1 (centres unmarked) [Compound 5, N-(2-(2,6-dioxopiperidin-3-yl)-1-oxoisoindolin-5-yl)-4-fluorobenzamide]	1000 to 10000
N#Cc1cccc(C(=O)Nc2ccc3c(c2)CN(C2CCC(=O)NC2=O)C3=O)c1 (centres unmarked) [Compound 9, 3-cyano-N-(2-(2,6-dioxopiperidin-3-yl)-1-oxoisoindolin-5-yl)benzamide]	< 1000
COc1ccc(C(=O)Nc2ccc3c(c2)CN(C2CCC(=O)NC2=O)C3=O)cc1 (centres unmarked) [Compound 40, N-(2-(2,6-dioxopiperidin-3-yl)-1-oxoisoindolin-5-yl)-4-methoxybenzamide]	< 1000
O=C1CCC(N2Cc3cc(NC(=O)c4ccc(OC(F)(F)F)cc4)ccc3C2=O)C(=O)N1 (centres unmarked) [Compound 43, N-(2-(2,6-dioxopiperidin-3-yl)-1-oxoisoindolin-5-yl)-4-(trifluoromethoxy)benzamide]	1000 to 10000
O=C1CCC(N2Cc3cc(Nc4noc5cc(F)ccc45)ccc3C2=O)C(=O)N1 (centres unmarked) [Compound 62, 3-(5-((6-fluorobenzo[d]isoxazol-3-yl)amino)-1-oxoisoindolin-2-yl)piperidine-2,6-dione]	< 1000
CCOc1cc(C)cc(C(=O)Nc2ccc3c(c2)CN(C2CCC(=O)NC2=O)C3=O)c1 (centres unmarked) [Compound 58, N-(2-(2,6-dioxopiperidin-3-yl)-1-oxoisoindolin-5-yl)-3-ethoxy-5-methylbenzamide]	1000 to 10000
CN(C)c1cccc(C(=O)Nc2ccc3c(c2)CN(C2CCC(=O)NC2=O)C3=O)c1 (centres unmarked) [Compound 60, 3-(dimethylamino)-N-(2-(2,6-dioxopiperidin-3-yl)-1-oxoisoindolin-5-yl)benzamide]	1000 to 10000
O=C1CCC(N2Cc3cc(NC(=O)c4ccccc4Oc4ccccc4)ccc3C2=O)C(=O)N1 (centres unmarked) [Compound 23, N-(2-(2,6-dioxopiperidin-3-yl)-1-oxoisoindolin-5-yl)-2-phenoxybenzamide]	< 1000
CC(C)c1ccccc1C(=O)Nc1ccc2c(c1)CN(C1CCC(=O)NC1=O)C2=O (centres unmarked) [Compound 42, N-(2-(2,6-dioxopiperidin-3-yl)-1-oxoisoindolin-5-yl)-2-isopropylbenzamide]	1000 to 10000
Cc1ccc(C(=O)Nc2ccc3c(c2)CN(C2CCC(=O)NC2=O)C3=O)cc1 (centres unmarked) [Compound 2, N-(2-(2,6-dioxopiperidin-3-yl)-1-oxoisoindolin-5-yl)-4-methylbenzamide]	< 1000

Structure (SMILES)	IC50 [nM]
COc1cc(F)cc(C(=O)Nc2ccc3c(c2)CN(C2CCC(=O)NC2=O)C3=O)c1 (centres unmarked) [Compound 59, N-(2-(2,6-dioxopiperidin-3-yl)-1-oxoisoindolin-5-yl)-3-fluoro-5-methoxybenzamide]	1000 to 10000
COc1ccccc1C(=O)Nc1ccc2c(c1)CN(C1CCC(=O)NC1=O)C2=O (centres unmarked) [Compound 34, N-(2-(2,6-dioxopiperidin-3-yl)-1-oxoisoindolin-5-yl)-2-methoxybenzamide]	1000 to 10000
Cc1cc(C(=O)Nc2ccc3c(c2)CN(C2CCC(=O)NC2=O)C3=O)ccc1Br (centres unmarked) [Compound 54, 4-bromo-N-(2-(2,6-dioxopiperidin-3-yl)-1-oxoisoindolin-5-yl)-3-methylbenzamide]	1000 to 10000
O=C1CCC(N2Cc3cc(NC(=O)c4cccnc4)ccc3C2=O)C(=O)N1 (centres unmarked) [Compound 6, N-(2-(2,6-dioxopiperidin-3-yl)-1-oxoisoindolin-5-yl)nicotinamide]	1000 to 10000
Cc1ccc(C(=O)Nc2ccc3c(c2)CN(C2CCC(=O)NC2=O)C3=O)cn1 (centres unmarked) [Compound 20, N-(2-(2,6-dioxopiperidin-3-yl)-1-oxoisoindolin-5-yl)-6-methylnicotinamide]	1000 to 10000
O=C1CCC(N2Cc3cc(NC(=O)c4ccc(C(F)(F)F)cc4)ccc3C2=O)C(=O)N1 (centres unmarked) [Compound 15, N-(2-(2,6-dioxopiperidin-3-yl)-1-oxoisoindolin-5-yl)-4-(trifluoromethyl)benzamide]	< 1000
Cc1cc(F)cc(C(=O)Nc2ccc3c(c2)CN(C2CCC(=O)NC2=O)C3=O)c1 (centres unmarked) [Compound 55]	1000 to 10000
COc1cc(C)cc(C(=O)Nc2ccc3c(c2)CN(C2CCC(=O)NC2=O)C3=O)c1 (centres unmarked) [Compound 61, N-(2-(2,6-dioxopiperidin-3-yl)-1-oxoisoindolin-5-yl)-3-methoxy-5-methylbenzamide]	1000 to 10000
O=C1CCC(N2Cc3cc(NC(=O)c4ccc5nc[nH]c5c4)ccc3C2=O)C(=O)N1 (centres unmarked) [Compound 27, N-(2-(2,6-dioxopiperidin-3-yl)-1-oxoisoindolin-5-yl)-1H-benzo[d]imidazole-6-carboxamide]	< 1000
O=C1CCC(N2Cc3cc(NC(=O)Cc4ccc(O)cc4)ccc3C2=O)C(=O)N1 (centres unmarked) [Compound 24, N-(2-(2,6-dioxopiperidin-3-yl)-1-oxoisoindolin-5-yl)-2-(4-hydroxyphenyl)acetamide]	< 1000
O=C1CCC(N2Cc3cc(NC(=O)Cc4ccccc4Br)ccc3C2=O)C(=O)N1 (centres unmarked) [Compound 25, 2-(2-bromophenyl)-N-(2-(2,6-dioxopiperidin-3-yl)-1-oxoisoindolin-5-yl)acetamide]	< 1000
O=C1CCC(N2Cc3cc(NC(=O)c4cccc(C(F)(F)F)c4)ccc3C2=O)C(=O)N1 (centres unmarked) [Compound 12, N-(2-(2,6-dioxopiperidin-3-yl)-1-oxoisoindolin-5-yl)-3-(trifluoromethyl)benzamide]	< 1000
Cc1cccc(C(=O)Nc2ccc3c(c2)CN(C2CCC(=O)NC2=O)C3=O)c1 (centres unmarked) [Compound 3, N-(2-(2,6-dioxopiperidin-3-yl)-1-oxoisoindolin-5-yl)-3-methylbenzamide]	1000 to 10000
O=C1CCC(N2Cc3cc(NC(=O)c4ccccc4OC(F)(F)F)ccc3C2=O)C(=O)N1 (centres unmarked) [Compound 45, N-(2-(2,6-dioxopiperidin-3-yl)-1-oxoisoindolin-5-yl)-2-(trifluoromethoxy)benzamide]	1000 to 10000
Cc1cccc(C(=O)Nc2ccc3c(c2)CN(C2CCC(=O)NC2=O)C3=O)c1Cl (centres unmarked) [Compound 57, 2-chloro-N-(2-(2,6-dioxopiperidin-3-yl)-1-oxoisoindolin-5-yl)-3-methylbenzamide]	1000 to 10000
Cc1ccc(C(=O)Nc2ccc3c(c2)CN(C2CCC(=O)NC2=O)C3=O)nc1 (centres unmarked) [Compound 36, N-(2-(2,6-dioxopiperidin-3-yl)-1-oxoisoindolin-5-yl)-5-methylpicolinamide]	< 1000
